Results on nine compounds are retold here after ChEMBL document CHEMBL1157445, “Design, synthesis and evaluation of isaindigotone derivatives as acetylcholinesterase and butyrylcholinesterase inhibitors” (Bioorg Med Chem Lett, 2008).

The target of assay [1] is Cholinesterase (Equus caballus, UniProt P81908).
Description: Inhibition of equine serum BuchE
The target in assay [2] is Acetylcholinesterase (Electrophorus electricus, UniProt O42275).
Description: Inhibition of electric eel AchE
For assay [3], the target named is Acetylcholinesterase (Homo sapiens, UniProt P22303). Briefly: Inhibition of AchE.
The target of assay [4] is Cholinesterase (Homo sapiens, UniProt P06276). Briefly: Inhibition of BuchE.

The IC50 is the midpoint of a concentration-inhibition curve. A high value points to weaker potency.

Chain of Cholinesterase (Equus caballus, UniProt P81908) (P81908 whole entry): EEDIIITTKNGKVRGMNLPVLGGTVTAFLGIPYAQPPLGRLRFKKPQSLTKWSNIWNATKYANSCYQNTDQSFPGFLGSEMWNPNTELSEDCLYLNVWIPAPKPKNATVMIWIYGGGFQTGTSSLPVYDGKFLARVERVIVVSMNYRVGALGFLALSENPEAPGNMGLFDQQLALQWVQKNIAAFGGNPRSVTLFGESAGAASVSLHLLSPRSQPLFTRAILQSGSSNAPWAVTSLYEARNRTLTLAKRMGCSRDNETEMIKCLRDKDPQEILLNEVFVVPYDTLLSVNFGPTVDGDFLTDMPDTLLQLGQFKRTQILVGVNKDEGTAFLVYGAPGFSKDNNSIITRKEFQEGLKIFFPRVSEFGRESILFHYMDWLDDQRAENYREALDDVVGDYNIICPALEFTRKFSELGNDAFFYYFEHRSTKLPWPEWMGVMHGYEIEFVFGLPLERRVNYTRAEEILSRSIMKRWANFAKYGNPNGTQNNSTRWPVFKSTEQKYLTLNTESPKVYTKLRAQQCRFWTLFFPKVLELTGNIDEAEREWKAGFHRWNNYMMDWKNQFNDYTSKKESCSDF
Chain of Acetylcholinesterase (Electrophorus electricus, UniProt O42275) (O42275 whole entry): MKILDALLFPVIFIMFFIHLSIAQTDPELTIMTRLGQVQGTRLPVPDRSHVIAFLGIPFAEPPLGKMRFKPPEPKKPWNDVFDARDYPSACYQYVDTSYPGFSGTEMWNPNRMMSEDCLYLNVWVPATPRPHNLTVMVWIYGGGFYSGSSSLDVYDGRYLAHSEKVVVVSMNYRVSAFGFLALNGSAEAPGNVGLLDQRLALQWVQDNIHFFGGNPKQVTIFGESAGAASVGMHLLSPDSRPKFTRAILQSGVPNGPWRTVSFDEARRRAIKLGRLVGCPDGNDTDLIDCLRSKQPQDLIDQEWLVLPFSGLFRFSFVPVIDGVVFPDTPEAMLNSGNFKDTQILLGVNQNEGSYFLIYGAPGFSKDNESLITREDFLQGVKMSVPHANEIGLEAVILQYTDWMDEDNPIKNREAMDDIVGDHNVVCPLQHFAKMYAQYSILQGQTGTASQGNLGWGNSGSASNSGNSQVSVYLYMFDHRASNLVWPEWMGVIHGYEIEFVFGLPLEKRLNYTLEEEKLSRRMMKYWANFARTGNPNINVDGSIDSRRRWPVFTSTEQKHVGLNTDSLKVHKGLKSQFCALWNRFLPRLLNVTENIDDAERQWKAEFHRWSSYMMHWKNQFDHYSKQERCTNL
Chain of Acetylcholinesterase (Homo sapiens, UniProt P22303) (P22303 whole entry): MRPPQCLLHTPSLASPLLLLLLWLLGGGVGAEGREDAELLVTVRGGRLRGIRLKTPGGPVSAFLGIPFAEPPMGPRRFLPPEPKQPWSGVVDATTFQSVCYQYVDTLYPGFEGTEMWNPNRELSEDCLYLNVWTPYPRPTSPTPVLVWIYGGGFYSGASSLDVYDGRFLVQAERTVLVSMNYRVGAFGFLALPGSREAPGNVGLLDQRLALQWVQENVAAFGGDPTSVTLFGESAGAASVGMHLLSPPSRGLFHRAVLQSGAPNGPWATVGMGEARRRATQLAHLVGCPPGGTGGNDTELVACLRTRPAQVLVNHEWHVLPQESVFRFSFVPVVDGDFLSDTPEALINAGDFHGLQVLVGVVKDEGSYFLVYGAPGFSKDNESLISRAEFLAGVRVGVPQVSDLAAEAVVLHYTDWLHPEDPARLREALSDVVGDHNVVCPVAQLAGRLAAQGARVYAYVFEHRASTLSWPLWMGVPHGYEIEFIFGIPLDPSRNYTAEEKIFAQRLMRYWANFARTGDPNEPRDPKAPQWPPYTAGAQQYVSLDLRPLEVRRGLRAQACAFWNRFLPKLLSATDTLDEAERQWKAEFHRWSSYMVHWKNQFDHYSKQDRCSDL
Chain of Cholinesterase (Homo sapiens, UniProt P06276) (P06276 whole entry): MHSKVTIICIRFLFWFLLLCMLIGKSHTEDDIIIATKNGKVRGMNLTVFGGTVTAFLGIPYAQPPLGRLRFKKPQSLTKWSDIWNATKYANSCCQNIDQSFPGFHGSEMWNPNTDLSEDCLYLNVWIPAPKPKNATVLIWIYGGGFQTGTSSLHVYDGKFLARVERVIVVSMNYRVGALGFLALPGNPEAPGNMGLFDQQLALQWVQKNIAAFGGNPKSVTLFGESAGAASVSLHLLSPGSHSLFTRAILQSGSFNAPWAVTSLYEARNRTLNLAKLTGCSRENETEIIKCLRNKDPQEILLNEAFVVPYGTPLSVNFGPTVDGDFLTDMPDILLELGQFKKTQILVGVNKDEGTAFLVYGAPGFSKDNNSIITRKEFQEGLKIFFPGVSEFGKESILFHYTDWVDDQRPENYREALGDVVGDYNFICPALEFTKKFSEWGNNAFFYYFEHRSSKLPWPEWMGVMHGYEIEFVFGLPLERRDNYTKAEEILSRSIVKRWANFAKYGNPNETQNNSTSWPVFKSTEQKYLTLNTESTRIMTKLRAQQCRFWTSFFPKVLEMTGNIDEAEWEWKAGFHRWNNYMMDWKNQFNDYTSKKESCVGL

For the compound `O=c1c2ccccc2nc2n1CC/C2=C\c1ccc(OCCN2CCCCC2)cc1`, the IC50 worked out at 2.99 µM against Cholinesterase [1] and 0.16 µM at Acetylcholinesterase [2].
Take `O=c1c2ccccc2nc2n1CCC2` [DEOXYVASICINONE]: the values for the IC50 on Acetylcholinesterase [3] and against Cholinesterase [4] were 82.5 µM and 25.1 µM, respectively.
`CCN(CC)CCCOc1ccc(/C=C2\CCn3c2nc2ccccc2c3=O)cc1`: the concentration for half-maximal inhibition (IC50) is 7.12 µM against Cholinesterase [1] and 2.41 µM at Acetylcholinesterase [2].
The like results for `CCN(CC)CCCOc1ccc(CC2CCn3c2nc2ccccc2c3=O)cc1` (stereo not drawn) were, in that order, over 20 µM and 8.95 µM.
The matching figures for `CCN(CC)CCOc1ccc(CC2CCn3c2nc2ccccc2c3=O)cc1` (stereo not drawn): over 20 µM and 1.62 µM.
`O=c1c2ccccc2nc2n1CCC2Cc1ccc(OCCN2CCCCC2)cc1` (stereo not drawn): the values for the half-maximal inhibitory concentration (IC50) at Cholinesterase [1] and at Acetylcholinesterase [2] were 8.29 µM and 0.75 µM, respectively.
Regarding `O=c1c2ccccc2nc2n1CCC2Cc1ccc(OCCCN2CCCCC2)cc1` (stereo not drawn), the IC50 at Cholinesterase [1] came out at 5.72 µM; on Acetylcholinesterase [2] it was 5.58 µM.
`CCN(CC)CCOc1ccc(/C=C2\CCn3c2nc2ccccc2c3=O)cc1`: the half-maximal inhibitory concentration (IC50) stood at 12.7 µM against Cholinesterase [1] and 0.48 µM at Acetylcholinesterase [2].
The like results for `O=c1c2ccccc2nc2n1CC/C2=C\c1ccc(OCCCN2CCCCC2)cc1` were, in that order, 1.66 µM and 0.72 µM.
